“Also recorded” adds a separate entry of the source. Read-outs that look alike come from different tables or passages of the source. Starred links: 1 amine or outer side, 2 acyl side, 3 side chain; linkers in the order of their positions; H or OH if unused. Residues, ends and D or L forms follow the SMILES beside them. No end group written: not given here. CO = O=C([*:1])[*:2]
What was measured:
[1] = test system: angiotensin converting enzyme-1 (ACE-1); test: 0.25 µg recombinant human ACE-1 in 100 µl angiotensin solution; conditions: up to 8 h
[2] = test system: recombinant human aminopeptidase N (APN); test: 0.25 µg recombinant human aminopeptidase N in 100 µl angiotensin solution; conditions: up to 24 h
[3] = immobilized human plasma proteins (CNBr-activated Sepharosebeads); conditions: 37°C, up to 24 h
[4] = test system: immobilized mouse plasma proteins
Experimental: (§2) Heparinized (10 IU/ml) mouse and rat blood (200 µl) was obtained from the caudal vein. Plasma was isolated from all blood samples by centrifugation (4–16 K, Sigma) 4000×g for 15 min.
(§3) For the immobilization of plasma proteins CNBr-activated Sepharosebeads® 6MB (GE Healthcare) were used. Protein immobilization was perfomed as described in the product information sheet for CNBr-activated Sepharosebeads® (Sigma Aldrich) except for modifications described in the supporting information part “immobilization of plasma proteins” (Methods S1).
Incubation of immobilized plasma proteins and the control samples (glycine derivatized Sepharosebeads® without immobilized proteins and heat inactivated immobilized plasma proteins for the incubation with ANG-1-10) was started by addition of the individual angiotensin peptides (final concentration of 10^−5 M, solved in HPLC-grade water, Lichrosolve, Merck) to the beads. Incubation was carried out at 37°C on a rotating shaker. […]
To investigate the processing of ANG-1-10 by human plasma proteases we used a mass spectrometry based enzyme screening (MES) system [20]. Therefore immobilized murine and human plasma proteins were incubated with ANG-1-10 and the reaction products were analyzed by mass spectrometry. […]
ANG-1-10 (10^−5 M) was incubated with immobilized mouse plasma proteins. Reaction products were detected by MALDI-MS after 0 h, 3 h, 4 h and 8 h. […]

[5] = test system: non-immobilized human plasma
Experimental: From this blood sample an aliquot of 10 ml was saved for the incubation experiments. The rest of the blood sample was immediately mixed with protease inhibitor cocktail (including 2 mM AEBSF, 0.3 µM aprotinin, 130 µM bestatin, 1 mM EDTA, 14 µM E-64 and 1 µM leupeptin (Sigma-Aldrich)) in a ratio of 1∶50.
For incubation of non-immobilized plasma a reaction volume of 200 µl non-immobilized undiluted and diluted plasma (1∶100 in HPLC-grade water) was used per sample. Incubation was started by addition of ANG-1-10 to a final concentration of 10^−5 M. Incubation was carried out at 37°C on a rotating shaker. As a control 200 µl of a 10^−5 M ANG-1-10 solution without plasma was incubated under the same conditions.
The reaction products derived from the incubation of non-immobilized plasma proteins were desalted by solid phase extraction (Hydophilic lipophilic balance (HLB) µElution plate, Waters). The HLB material was equilibrated by three washing steps with 0.2% formic acid/HPLC-grade water by centrifugation of the plate for 1 min with 500×g. Next, the sample was applied to the HLB material and centrifuged for 2 min with 200×g. The flow-through was discarded and unbound molecules were removed by washing the HLB material 3 times with 0.2% formic acid/HPLC-grade water by centrifugation of the plate for 2 min with 500×g. […]

[6] = test system: immobilized rat plasma proteins
Experimental: as §2, §3
Incubation of immobilized plasma proteins and the control samples (glycine derivatized Sepharosebeads® without immobilized proteins and heat inactivated immobilized plasma proteins for the incubation with ANG-1-10) was started by addition of the individual angiotensin peptides (final concentration of 10^−5 M, solved in HPLC-grade water, Lichrosolve, Merck) to the beads. Incubation was carried out at 37°C on a rotating shaker. The final reaction volume of the samples was 30 µl.
Identification of the reaction products was done by comparison of the m/z values of the peaks in the mass spectra with the theoretical m/z values (Table S2) of possible angiotensin peptide products.
ANG-1-10 (10^−5 M) was incubated with immobilized rat plasma proteins. Reaction products were detected by MALDI-MS after 0 h, 1 h, 3 h and 8 h.

[7] = test system: immobilized human plasma proteins; test: Incubation of angiotensin peptides with immobilized human plasma proteins; type: in vitro ADME
Experimental: For incubation experiments human venous citrate blood (ratio 1∶9, blood to sodium citrate 3,13% (Eifelfango)) was obtained by catheterization from the cubital vein of a healthy volunteer (blood pressure: normal, <120/80 mmHg).
Analysis of the reaction by SRM was performed on a LC-ESI-QQQ-MS system. Exoproteolytic processing of these angiotensin peptides requires the presence of plasma proteases which are able to cognate and cleave the intermediate angiotensin peptides. […] When ANG-5-10 was incubated in presence of human immobilized plasma proteins time the dependent generation of ANG-6-10 was detected. After an incubation period of 8 h nearly no angiotensin peptides were detected in any of the reaction mixtures.
Dry Sepharosebeads® were swollen in 10 ml 0.1 mM hydrochloric acid/ HPLC (high pressure liquid chromatography)-grade water for 30 min on a rotating shaker. Subsequently they were washed repeatedly with HPLC-grade water (Lichrosolve, Merck). Afterwards Sepharosebeads® were equilibrated by multiple washing steps with protein coupling buffer (100 mM NaHCO3, 500 mM NaCl, pH 8,3). For protein immobilization plasma samples with a volume of 40 µl were mixed with coupling buffer in a ratio of 1:6 and mixed with the prepared Sepharosebeads® followed by incubation for 2h on a rotating shaker (room temperature). As a control heat inactivated plasma (boiled for 5 min) was immobilized. A volume of 40 µl swollen Sepharosebeads® was used per sample. After protein immobilization the Sepharosebeads® were washed three times with HPLC-grade water. Free binding sites of the Sepharosebeads® were saturated by incubation with blocking buffer (100 mM NaHCO3,500 mM NaCl, pH 8,3, 1 M Glycine, pH 8,3) for 2h on a rotating shaker (room temperature).

APN = test: in vitro and in vivo; conditions: cited from earlier work
[8] = test system: angiotensin-generating proteases of immobilized human plasma proteins; test: Incubation of immobilized human plasma proteins with ANG-1-10 in the presence of protease inhibitors (SRM-MS); type: biochemical
Experimental: The control was incubated with immobilized plasma proteins in the absence of inhibitors. The incubation with immobilized plasma proteins was carried out as described in “Incubation of immobilized plasma proteins”. The incubation was started by addition of ANG-1-10 to a final concentration of 10^−5 M to the immobilized plasma proteins.
The reaction products were analyzed by SRM-MS after 6 h (Figure S6).
Supplementary file pone.0064027.s006.tif: Figure S6 Processing of ANG-1-10 by immobilized human plasma proteases in the presence and abscence of protease inhibitors. […] Right y-axis: AUC of ANG-2-10 and ANG-3-10 after incubation in presence of EDTA. (TIF) Click here for additional data file.

[9] = test system: anti ANG-1-10 antibody (rabbit polyclonal); conditions: rabbit polyclonal antibody of the kit; ref Fluorescent EIA Kit, phoenix pharmaceuticals; cited from earlier work
Experimental: The RP-HPLC plasma peptide fractionations corresponding to the retention times of the synthetic angiotensin peptides were analyzed by an immuno-fluorescence assay that was originally manufactured for the quantification of ANG-1-10.

[10] = molecular target: recombinant human aminopeptidase N (APN) (Homo sapiens, UniProt P15144); test: Incubation of angiotensin peptides with recombinant aminopeptidase N (MALDI-MS); conditions: for Cleavage products generated from the substrate by recombinant aminopeptidase N (APN): substrate 10^−5 M in HPLC-grade water, 0.25 µg recombinant human APN per 100 µl, reaction products detected by MALDI-MS
Experimental: (§1) At defined incubation times aliquots (10 µl) were taken from the reaction mixtures. Reaction was stopped by addition of formic acid adjusting a final concentration of 0.2% (v/v) formic acid/HPLC-grade water. Samples were analyzed by MALDI-MS (Reflex IV, Bruker) using DHB as matrix.
APN is a protease that is known to cleave ANG-2-8 between the Arg2-Val3 in vitro [22] and in vivo [23], [24]. Thus it is a potential protease for the generation of ANG-3-10.

recombinant human ACE-1 = recombinant human ACE-1 (Homo sapiens, UniProt P12821); test: Incubation of angiotensin peptides with recombinant ACE-1 (MALDI-MS); conditions: peptide 10^−5 M, 0.25 µg recombinant human ACE-1, MALDI-MS after 8 h
Experimental: as §1
It is known that ACE-1 generates ANG-1-8 by removal of the last two C-terminal amino acids (His9-Leu10) of ANG-1-10. […] The reaction products were analyzed by MALDI-MS (Figure S7).
Supplementary file pone.0064027.s007.tif: Figure S7 Processing of angiotensin peptides by recombinant ACE-1. […] ACE-1 was incubated with A) ANG-1-10, B) ANG-2-10, C) ANG-3-10, D) ANG-4-10, E) ANG-5-10. Reaction products were analyzed by MALDI-MS after an incubation time of 8 h. MALDI-MS-Signals which were assigned as angiotensin peptides are marked by arrows. (TIF) Click here for additional data file.

rat blood = conditions: cited from earlier work
[11] = ANG-1-10 10^−5 M, immobilized human plasma proteins, 200 µM AEBSF, 50 µM antipain, 150 µM bestatin, 10 µM captopril, 100 µM chymostatin, 100 µM EDTA, SRM-MS after 6 h, mean ± SEM, n = 3
[12] = ANG-1-10 10^−5 M, immobilized human plasma proteins, 200 µM AEBSF, 50 µM antipain, 150 µM bestatin, 100 µM EDTA, SRM-MS after 6 h, mean ± SEM, n = 3
[13] = substrate 10^−5 M, immobilized human plasma proteins, 37°C, SRM-MS (LC-ESI-QQQ-MS) / MALDI-MS

recombinant human ACE-1, sequence (P12821 30-1306): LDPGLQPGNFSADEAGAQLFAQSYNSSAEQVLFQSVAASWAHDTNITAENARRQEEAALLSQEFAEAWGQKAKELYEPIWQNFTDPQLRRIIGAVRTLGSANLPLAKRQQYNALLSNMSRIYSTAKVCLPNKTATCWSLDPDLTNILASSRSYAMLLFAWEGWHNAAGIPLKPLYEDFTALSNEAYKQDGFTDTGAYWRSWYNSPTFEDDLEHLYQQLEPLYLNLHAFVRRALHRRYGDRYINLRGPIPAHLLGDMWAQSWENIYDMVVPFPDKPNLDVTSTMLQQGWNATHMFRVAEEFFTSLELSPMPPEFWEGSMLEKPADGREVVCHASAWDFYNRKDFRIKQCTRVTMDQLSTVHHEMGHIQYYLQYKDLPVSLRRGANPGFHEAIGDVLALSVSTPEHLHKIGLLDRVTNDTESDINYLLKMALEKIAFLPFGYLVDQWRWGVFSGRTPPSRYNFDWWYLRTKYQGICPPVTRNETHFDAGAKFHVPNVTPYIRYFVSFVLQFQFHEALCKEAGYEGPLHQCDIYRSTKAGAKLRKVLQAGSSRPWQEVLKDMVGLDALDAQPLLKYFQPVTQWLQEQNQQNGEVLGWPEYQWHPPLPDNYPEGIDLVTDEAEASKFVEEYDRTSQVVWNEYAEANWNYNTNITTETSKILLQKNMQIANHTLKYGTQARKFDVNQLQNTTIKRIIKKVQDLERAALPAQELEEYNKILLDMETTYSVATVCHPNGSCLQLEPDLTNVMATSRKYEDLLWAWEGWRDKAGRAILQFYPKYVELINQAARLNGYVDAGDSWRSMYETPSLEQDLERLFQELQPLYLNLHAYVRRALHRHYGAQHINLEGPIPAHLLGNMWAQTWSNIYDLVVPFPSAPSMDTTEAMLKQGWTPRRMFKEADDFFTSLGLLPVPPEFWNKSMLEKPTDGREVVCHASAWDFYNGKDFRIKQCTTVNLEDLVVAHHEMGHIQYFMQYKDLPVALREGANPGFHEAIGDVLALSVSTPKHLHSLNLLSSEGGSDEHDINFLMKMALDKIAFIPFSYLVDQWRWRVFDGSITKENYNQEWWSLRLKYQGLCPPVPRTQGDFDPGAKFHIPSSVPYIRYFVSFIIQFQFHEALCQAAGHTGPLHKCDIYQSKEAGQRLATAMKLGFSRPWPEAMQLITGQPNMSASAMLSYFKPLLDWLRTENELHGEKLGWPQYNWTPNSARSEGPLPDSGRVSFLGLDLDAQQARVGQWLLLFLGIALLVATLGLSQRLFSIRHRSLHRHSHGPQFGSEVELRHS
recombinant human aminopeptidase N (APN) (Homo sapiens, UniProt P15144), sequence (P15144 whole entry): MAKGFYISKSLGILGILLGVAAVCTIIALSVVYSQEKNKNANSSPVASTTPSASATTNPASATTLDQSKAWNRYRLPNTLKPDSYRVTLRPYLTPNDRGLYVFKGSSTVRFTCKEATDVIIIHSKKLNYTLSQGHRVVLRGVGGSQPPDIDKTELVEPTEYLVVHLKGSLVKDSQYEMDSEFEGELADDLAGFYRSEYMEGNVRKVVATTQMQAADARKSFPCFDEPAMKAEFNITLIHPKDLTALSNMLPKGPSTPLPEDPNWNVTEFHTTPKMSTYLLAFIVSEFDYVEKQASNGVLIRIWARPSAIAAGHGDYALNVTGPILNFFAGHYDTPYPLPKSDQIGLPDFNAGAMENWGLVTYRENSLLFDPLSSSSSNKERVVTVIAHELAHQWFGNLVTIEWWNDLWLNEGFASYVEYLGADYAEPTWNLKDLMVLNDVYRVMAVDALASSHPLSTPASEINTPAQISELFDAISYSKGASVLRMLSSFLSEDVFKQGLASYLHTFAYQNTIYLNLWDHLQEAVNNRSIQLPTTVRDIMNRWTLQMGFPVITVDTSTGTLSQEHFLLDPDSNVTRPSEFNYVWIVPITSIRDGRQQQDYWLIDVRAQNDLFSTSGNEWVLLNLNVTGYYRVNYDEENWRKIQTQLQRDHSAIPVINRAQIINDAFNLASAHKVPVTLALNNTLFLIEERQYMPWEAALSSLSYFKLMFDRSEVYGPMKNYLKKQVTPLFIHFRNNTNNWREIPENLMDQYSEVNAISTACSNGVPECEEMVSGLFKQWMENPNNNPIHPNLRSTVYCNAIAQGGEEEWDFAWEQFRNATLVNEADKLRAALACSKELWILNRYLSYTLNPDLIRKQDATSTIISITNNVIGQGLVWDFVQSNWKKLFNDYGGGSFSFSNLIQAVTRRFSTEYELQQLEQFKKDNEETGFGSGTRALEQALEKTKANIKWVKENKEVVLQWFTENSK

## VYIHPFHL
[1]
  cleaved bond: F8-His9
[2]
  fragment found: ANG-4-10, 1 h; also recorded: ANG-6-10, 1 h
[3]
  fragment found: ANG-4-10; also recorded: ANG-5-10; also recorded: ANG-6-10

## IHPFHL
[1]
  cleaved bond: F8-His9
[2]
  fragment found: ANG-6-10
[3]
  fragment found: ANG-6-10

## DRVYIHPFHL [ANG-1-10, angiotensin I]
[4]
  Only reaction products left after 8 h of incubation, mouse plasma: ANG-1-8
  Reaction products generated from the substrate by immobilized mouse plasma proteins: ANG-1-8 (m/z 1046.5), ANG-1-7 (m/z 899.5), ANG-2-10 (m/z 1181.7), ANG-3-10 (m/z 1025.6), ANG-4-10 (m/z 926.5), ANG-5-10 (m/z 763.4)
[5]
  Reaction products generated from the substrate by non-immobilized human plasma proteins: A-1-9, ANG-1-8, ANG-1-7, ANG-2-10, ANG-3-10, ANG-4-10, ANG-5-10 and ANG-6-10
[6]
  Only reaction products left after 8 h of incubation, rat plasma: ANG-1-7, ANG-1-8 and ANG-5-10
  Reaction products generated from the substrate by immobilized rat plasma proteins: ANG-1-8 (m/z 1046.5), ANG-1-7 (m/z 899.5), ANG-2-10 (m/z 1181.7), ANG-3-10 (m/z 1025.6), ANG-4-10 (m/z 926.5), ANG-5-10 (m/z 763.4)
[7]
  Reaction products generated from the substrate by immobilized human plasma proteins: A-1-9, ANG-1-8, ANG-1-7, ANG-2-10, ANG-3-10, ANG-4-10, ANG-5-10 and ANG-6-10

## RVYIHPF
APN
  cleaved bond: Arg2-Val3

## CC(C)C[C@H](NC(=O)[C@@H](O)[C@H](N)Cc1ccccc1)C(=O)O [Bestatin]
[8]; [11]
  Change of ANG-6-10-generating activity in the presence of inhibitor: 0.76±0.14
[8]; [12]
  Change of ANG-3-10-generating activity in the presence of inhibitor: Higher amounts

## CC(C)[C@H](NC(=O)[C@H](CCCNC(=N)N)NC(=O)N[C@@H](Cc1ccccc1)C(=O)O)C(=O)N[C@H](C=O)CCCNC(=N)N [Antipain] ({Phe-CO}-Arg-Val-Arg-aldehyde)
[8]
  Change of ANG-6-10-generating activity in the presence of inhibitor: slightly inhibited
[8]; ANG-1-10 10^−5 M, immobilized human plasma proteins, 50 µM antipain, 150 µM bestatin, 100 µM EDTA, SRM-MS after 6 h, mean ± SEM, n = 3
  Change of ANG-2-10-generating activity in the presence of inhibitor: −0.12±0.023
[8]; ANG-1-10 10^−5 M, immobilized human plasma proteins, 50 µM antipain, SRM-MS after 6 h, mean ± SEM, n = 3
  Change of ANG-4-10-generating activity in the presence of inhibitor: -0.21±0.05
[8]; [12]
  Change of ANG-3-10-generating activity in the presence of inhibitor: inhibited

## O=C(O)CN(CCN(CC(=O)O)CC(=O)O)CC(=O)O [EDTA]
[8]; [12]
  Change of ANG-3-10-generating activity in the presence of inhibitor: 3.4±0.8

## C[C@H](CS)C(=O)N1CCC[C@H]1C(=O)O [Captopril]
[8]; [11]
  Change of ANG-6-10-generating activity in the presence of inhibitor: 0.98±0.32

## RVYIHPF [ANG-2-8, angiotensin peptide also known as AIII]
[9]
  Cross reactivity with the anti ANG-1-10 antibody: no cross reactivity

## RVYIHPFHL [ANG-2-10]
[10]
  Cleavage products generated from the substrate by recombinant aminopeptidase N (APN): VYIHPFHL; also recorded: YIHPFHL; also recorded: IHPFHL; also recorded: HPFHL
Recombinant human ACE-1
  Reaction product generated by recombinant ACE-1: ANG-2-8
[7]; substrate 10^−5 M, immobilized human plasma proteins, 37°C, MALDI-MS after 8 h
  Further reaction products detected by MALDI-MS after 8 h of incubation: ANG-2-8 (m/z 931.5), ANG-3-8 (m/z 775.4) and ANG-4-8 (m/z 676.3)
[7]; [13]
  Reaction products generated from the substrate by immobilized human plasma proteins: ANG-3-10, ANG-4-10, ANG-5-10 and ANG-6-10

## IHPFHL [ANG-5-10]
[10]
  Cleavage products generated from the substrate by recombinant aminopeptidase N (APN): HPFHL
Recombinant human ACE-1
  Reaction product generated by recombinant ACE-1: ANG-5-8
[7]; [13]
  Reaction products generated from the substrate by immobilized human plasma proteins: ANG-6-10

## YIHPFHL [ANG-4-10]
[10]
  Cleavage products generated from the substrate by recombinant aminopeptidase N (APN): IHPFHL; also recorded: HPFHL
Recombinant human ACE-1
  Reaction product generated by recombinant ACE-1: ANG-4-8

## YIHPFHL
[1]
  cleaved bond: F8-His9
[2]
  fragment found: ANG-5-10, 1 h; also recorded: ANG-6-10, 1 h
[3]
  fragment found: ANG-5-10; also recorded: ANG-6-10

## NCCc1ccc(S(=O)(=O)F)cc1 [AEBSF]
[8]; [12]
  Change of ANG-3-10-generating activity in the presence of inhibitor: inhibited

## HPFHL [ANG-6-10]
[10]; within 24 h of incubation with recombinant APN, MALDI-MS
  Stability towards APN: not further degraded
Recombinant human ACE-1
  Reaction product generated by recombinant ACE-1: no cleavage product was observed

## RVYIHPFHL
[1]
  cleaved bond: F8-His9
Rat blood
  fragment found: ANG-2-8
[2]
  fragment found: ANG-3-10, 1 h; also recorded: ANG-4-10, 1 h; also recorded: ANG-5-10, 4 h; also recorded: ANG-6-10, 8 h
[3]
  fragment found: ANG-3-10; also recorded: ANG-4-10; also recorded: ANG-5-10; also recorded: ANG-6-10; also recorded: ANG-2-8, 8 h; also recorded: ANG-3-8, 8 h; also recorded: ANG-4-8, 8 h

## CC[C@H](C)[C@H](NC(=O)[C@H](Cc1ccc(O)cc1)NC(=O)[C@@H](NC(=O)[C@H](CCCNC(=N)N)NC(=O)[C@@H](N)CC(=O)O)C(C)C)C(=O)N[C@@H](Cc1cnc[nH]1)C(=O)N1CCC[C@H]1C(=O)N[C@@H](Cc1ccccc1)C(=O)O [ANG-1-8, angiotensin II]
[10]
  Cleavage products generated from the substrate by recombinant aminopeptidase N (APN): none

## CC(C)C[C@H](NC(=O)[C@@H](NC(=O)N[C@@H](Cc1ccccc1)C(=O)O)[C@@H]1CCN=C(N)N1)C(=O)N[C@H](C=O)Cc1ccccc1 [Chymostatin]
[8]
  Change of ANG-6-10-generating activity in the presence of inhibitor: 1.30±0.14

## HPFHL
[2]
  not cleaved: not further degraded by APN within 24 h

## VYIHPFHL [ANG-3-10]
[10]
  Cleavage products generated from the substrate by recombinant aminopeptidase N (APN): YIHPFHL; also recorded: HPFHL
Recombinant human ACE-1
  Reaction product generated by recombinant ACE-1: ANG-3-8
[7]; [13]
  Reaction products generated from the substrate by immobilized human plasma proteins: ANG-4-10, ANG-5-10 and ANG-6-10

— paper PMC3665828 (PLoS ONE, 2013)
